In assay [1] the test system is primary CD123+ AML cells from patients with relapsed/refractory disease. Put plainly: Short-term culture of primary relapsed/refractory AML patient samples. The assay is classed as cell-based, human. The following applies: single agent, in vitro. As to the method: (§1) CD123 expression on human AML cell lines (HEL, HL60, MV411, Molm13, EOL-1, THP-1, and Kasumi-1) was quantified by flow cytometry using QuantriBrite beads. AML cells were continuously cultured for 72-96 hours with varying doses of IMGN632 (range 100 pM-100 nM) and specific PARP inhibitors (range 100 pM-15 μM) alone and in combination. Cell viability was measured using a WST-8 colorimetric assay. Primary clinically annotated CD123+AML cells from patients with relapsed/refractory disease were obtained under IRB-approved protocols from the Roswell Park (Buffalo, N.Y.) Hematologic Procurement Shared Resource and cultured short-term in the presence of multiple cytokines plus IMGN632+/−PARP inhibitors. Apoptosis (Annexin V/PI), cell cycle, and DNA damage (H2AX) were evaluated by flow cytometry. Additive vs. synergistic effects were determined by combination indices using Compusyn software. PARP trapping was evaluated by Western blot analysis in nuclear lysates obtained from IMGN632+/−PARP inhibitors treated AML cells.

In another assay the test system is human AML cell lines. The assay can be described thus: AML cell line viability, WST-8 colorimetric assay. Format: cell-based. The settings on record: 120 h, continuous single agent 5-day treatment, read-out: IC50, in vitro inhibition of AML cell line growth. As to the method: as §1, with “AML cells were continuously cultured for 72-96 hours with varying doses of IMGN632 (range 100 pM-100 nM) and specific PARP inhibitors (range 100 pM-15 μM) alone and in combination.” left out
A general note: Tetrazolium dyes change colour on reduction, which living cells bring about.

Another assay has as its system preclinical AML models. The following applies: Portwood S et al, ASH 2016; cited from earlier work.

pIC50: −log10 of the molar value.

As usually defined, the pIC50 is the IC50 on a negative log10 scale, so that one unit is a factor of ten. Consider `Cn1ncnc1[C@H]1c2n[nH]c(=O)c3cc(F)cc(c23)N[C@@H]1c1ccc(F)cc1` [talazoparib], for which the “activity against primary relapsed/refractory AML patient samples” value in assay [1] is on record as “single agent activity”. The pIC50 in the assay with human AML cell lines was 6.44. As to `O=C(c1cc(Cc2n[nH]c(=O)c3ccccc23)ccc1F)N1CCN(C(=O)C2CC2)CC1` [olaparib], the “activity against primary relapsed/refractory AML patient samples” value in assay [1] is listed as “single agent activity”. Further, the “effect on activity of the CD33-targeted ADC IMGN779” value in the assay on preclinical AML models is given as “synergistically enhance”.

For the molecule `C[C@]1(c2nc3c(C(N)=O)cccc3[nH]2)CCCN1` [veliparib], the pIC50 in the assay with human AML cell lines is 4.11. As for IMGN632, the “activity against primary relapsed/refractory AML patient samples” value in assay [1] is “single agent activity”.
